From the supplement of paper PMC10307832

Assays:
Assay in all cases: relative viability (nuclei count vs DMSO), 5 days (fraction); higher = more cells survive
Bemcentinib + Linsitinib = compound: Nc1nc(Nc2ccc3c(c2)CC[C@@H](N2CCCC2)CC3)nn1-c1cc2c(nn1)-c1ccccc1CCC2 [Bemcentinib] + C[C@]1(O)C[C@@H](c2nc(-c3ccc4ccc(-c5ccccc5)nc4c3)c3c(N)nccn32)C1 [Linsitinib] (partner 1 µM)
In short: (§1)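 After 5 days of treatment, lung cancer cells in 1536-well plates were fixed and stained in a single step (final 0.05% Triton X-100, 1% formaldehyde, 1 ug/ml Hoechst) and their nuclei counted on 4× images. Treatment had been applied by pin tool the day after seeding as one drug alone or as a fixed anchor-drug dose with five library-drug doses (not always all listed) in √10 steps. Relative viability is the nuclei count of treated wells divided by that of vehicle wells, and values are medians of duplicate plates.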

Axitinib + Lapatinib = compound: CNC(=O)c1ccccc1Sc1ccc2c(/C=C/c3ccccn3)n[nH]c2c1 [Axitinib] + CS(=O)(=O)CCNCc1ccc(-c2ccc3ncnc(Nc4ccc(OCc5cccc(F)c5)c(Cl)c4)c3c2)o1 [Lapatinib] (partner 2 µM)
In short: as §1

Bemcentinib + Navitoclax = compound: Nc1nc(Nc2ccc3c(c2)CC[C@@H](N2CCCC2)CC3)nn1-c1cc2c(nn1)-c1ccccc1CCC2 [Bemcentinib] + CC1(C)CCC(c2ccc(Cl)cc2)=C(CN2CCN(c3ccc(C(=O)NS(=O)(=O)c4ccc(N[C@H](CCN5CCOCC5)CSc5ccccc5)c(S(=O)(=O)C(F)(F)F)c4)cc3)CC2)C1 [Navitoclax] (partner 0.5 µM)
In short: as §1

[1] = compound: CC1=CC=C(C=C1)C(=O)CN2C3=C(CCCC3)SC2=N [Pifithrin_alpha] + CS(=O)(=O)N1CCN(Cc2cc3nc(-c4cccc5[nH]ncc45)nc(N4CCOCC4)c3s2)CC1 [Pictilisib] (partner 1 µM)
In short: as §1

Cell Line	relative viability (Bemcentinib + Linsitinib; first compound 0.04 µM)	relative viability (Bemcentinib + Linsitinib; first compound 0.1265 µM)	relative viability (Bemcentinib + Linsitinib; first compound 0.4 µM)	relative viability (Bemcentinib + Linsitinib; first compound 1.265 µM)	relative viability (Bemcentinib + Linsitinib; first compound 4 µM)	relative viability (Axitinib + Lapatinib; first compound 0.005 µM)	relative viability (Axitinib + Lapatinib; first compound 0.01581 µM)	relative viability (Axitinib + Lapatinib; first compound 0.05 µM)	relative viability (Axitinib + Lapatinib; first compound 0.1581 µM)	relative viability (Axitinib + Lapatinib; first compound 0.5 µM)	relative viability (Bemcentinib + Navitoclax; first compound 0.04 µM)	relative viability (Bemcentinib + Navitoclax; first compound 0.1265 µM)	relative viability (Bemcentinib + Navitoclax; first compound 0.4 µM)	relative viability (Bemcentinib + Navitoclax; first compound 1.265 µM)	relative viability (Bemcentinib + Navitoclax; first compound 4 µM)	relative viability ([1]; first compound 1 µM)	relative viability ([1]; first compound 3.162 µM)	relative viability ([1]; first compound 10 µM)	relative viability ([1]; first compound 31.62 µM)	relative viability ([1]; first compound 100 µM)
LOU-NH91	0.942	0.895	0.959	0.943	0.956	0.839	0.789	0.836	0.711	0.705	0.639	0.728	0.625	0.674	0.722	0.473	0.476	0.444	0.442	0.371
NCI-H3122	0.949	1.06	1.02	1.08	1	1.03	0.977	1.04	1.04	1.13	1.01	1.06	1.02	1	1.03	0.628	0.596	0.577	0.563	0.732
NCI-H1975	0.981	1.03	1.03	1.06	1.02	1.02	0.841	0.899	0.871	0.953	1.03	1.23	1.12	1.05	1.2	0.232	0.18	0.187	0.193	0.18
NCI-H1651	0.958	0.965	1.15	1.15	1.08	0.89	0.706	0.929	0.713	0.942	0.966	1.16	1.35	1.14	1.24	0.687	0.541	0.66	0.365	0.528
NCI-H647	1.17	1.35	1.12	1.28	1.17	1.07	1.09	1.29	1.09	1.41	1.14	1.36	1.15	1.03	1.09	–	0.413	0.37	0.226	0.341
HCC-78	0.572	0.56	0.49	0.634	0.806	0.865	0.724	0.642	0.701	0.47	0.657	0.792	0.859	0.943	0.836	0.134	0.218	0.174	–	0.196
NCI-H2126	0.706	0.693	0.659	0.76	0.781	0.765	0.745	0.771	0.71	0.729	0.835	0.929	0.892	0.869	0.833	0.341	0.482	0.405	0.427	0.376
SK-LU-1	1.15	1.42	1.28	1.02	1.13	0.976	0.951	0.942	0.835	1.39	0.867	0.986	0.894	0.807	0.615	0.523	0.526	0.615	0.451	0.45
LC-2-ad	0.831	0.851	0.835	0.888	0.894	0.935	0.99	1.06	0.985	1.03	0.415	0.547	0.609	0.536	0.509	0.414	0.382	0.489	0.304	0.18
NCI-H23	0.576	0.692	0.554	0.72	0.568	1.22	1.1	1.15	1.01	1.28	0.779	0.869	1.08	0.813	0.778	0.491	0.459	0.491	0.343	0.365
NCI-H2228	–	0.627	0.733	0.585	1.11	1.28	0.959	1.09	1.29	1.39	–	1.06	1.15	0.909	1.08	0.516	0.352	0.434	0.294	0.303
SW 1573	0.884	0.753	0.855	0.966	0.835	1.15	1.09	1.29	1.06	1.03	0.868	0.979	1.09	1.18	0.97	0.596	0.595	0.59	0.438	0.491
HCC-15	0.828	0.983	0.923	0.904	0.93	0.884	0.872	0.831	0.836	0.848	0.713	0.799	0.776	0.726	0.721	0.691	0.754	0.673	0.458	0.715
